{"source": "paper PMC6594058", "about": "“A Research‐inspired biochemistry laboratory module–combining expression, purification, crystallization, structure‐solving, and characterization of a flavodoxin‐like protein” (Biochemistry and Molecular Biology Education, 2019)", "biological_target": "T1, NrdI (Bacillus cereus, UniProt Q81G57)", "T1 construct": "untagged by purification route (IEX, SEC); pET-22b(+) XbaI/HindIII; E. coli BL21(DE3)", "T1 sequence (Q81G57 1-119)": "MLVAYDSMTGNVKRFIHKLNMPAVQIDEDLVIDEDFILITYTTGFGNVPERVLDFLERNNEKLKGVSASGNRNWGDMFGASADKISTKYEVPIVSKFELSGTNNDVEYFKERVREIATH", "experiment": "X-ray crystallography (students re-solve previously collected semiquinone data); UV-vis of co-purified cofactor with dithionite titration", "type": "binding", "settings": "crystal in semiquinone state (FMNH•); 1.15 Å; UV-vis in 50 mM Tris-HCl pH 7.5; native bound cofactor", "data": [{"smiles": "Cc1cc2nc3c(=O)[nH]c(=O)nc-3n(C[C@H](O)[C@H](O)[C@H](O)COP(=O)(O)O)c2cc1C", "note": "[FMN]", "values": [{"measurement": "X-ray crystallography (students re-solve previously collected semiquinone data);", "result": "Overall structure of the B. cereus NrdI, with the FMN cofactor represented as sticks"}]}]}
